Measurements reported in PMC8151276, “An Integrated Approach toward NanoBRET Tracers for Analysis of GPCR Ligand Engagement” (Molecules, 2021).

Assays:
Type in all cases: binding
[1] = target: T1, EDNRA (Homo sapiens, UniProt P25101); assay: NanoBRET screen HiBiT-EDNRA in HEK293
T1 construct: purchased Promega (in-house HiBiT-GPCR construct library, NanoBRET)
T1 sequence (P25101 21-427): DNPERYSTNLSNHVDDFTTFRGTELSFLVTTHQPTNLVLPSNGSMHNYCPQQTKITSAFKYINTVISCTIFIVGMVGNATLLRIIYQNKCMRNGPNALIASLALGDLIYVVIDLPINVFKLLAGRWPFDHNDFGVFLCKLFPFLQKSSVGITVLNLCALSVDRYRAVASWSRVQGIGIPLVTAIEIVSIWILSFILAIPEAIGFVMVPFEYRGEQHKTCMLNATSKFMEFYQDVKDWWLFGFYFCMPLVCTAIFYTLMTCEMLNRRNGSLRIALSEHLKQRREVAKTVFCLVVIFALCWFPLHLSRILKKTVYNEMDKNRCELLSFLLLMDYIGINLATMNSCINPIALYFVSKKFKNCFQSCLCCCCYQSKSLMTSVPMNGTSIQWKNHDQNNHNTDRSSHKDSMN
Method: (§1) Each tracer candidate was screened across the entire library of HiBiT-GPCR constructs using NanoBRET as the detection modality. As depicted in Figure 4A, the specificity of interactions was evaluated through decrease in BRET due to competitive displacement of a bound tracer by excess parental compound. Each tracer was analyzed for binding to each HiBiT-GPCR fusion in the absence and in the presence of competing parental compound. Briefly, HEK293 cells were transfected with HiBiT-GPCR constructs diluted into promoterless DNA to reduce expression and maximize translocation to the cell surface. Each tracer candidate was then screened at concentrations of 1 μM and 0.1 μM across cells expressing these fusions. Cells were treated for 1.5 h with tracer either alone or in the presence of 20 μM competing parental compound (i.e., control). BRET was measured upon addition of purified LgBiT and subsequent complementation with HiBiT genetically fused to a GPCR. The specificity of interactions was assessed through a decrease in BRET signal due to competitive displacement of the bound tracer. To further gauge the robustness of these interactions, the fold response over the control (i.e., BRETtracer/BRETcontrol) was calculated. We chose a 1.5-fold response, which translates to ≥7-fold signal over noise as the minimal threshold required to score an interaction as positive. […]. Below we highlight the screening results obtained for our exemplary fluorescent tracers based on Clozapine, Amitriptyline and AZD1283.
(§2) HiBiT-GPCR DNA constructs were diluted in 10 mM Tris pH 8 to a final concentration of 0.01 μg/μL, arrayed in 96-well plates and stored at −20 °C. For transfection, HEK293 cells were suspended in Opti-MEM (without phenol red) supplemented with 2% fetal bovine serum (Seradigm) and 100 units/mL penicillin–streptomycin (Gibco) at a final concentration of 220,000 cells/mL and dispensed into white 96-well plates at 90 μL/well. Subsequent transfections and screens were carried using an Agilent Bravo Automated Liquid Handling Platform. First, the 96-well HiBiT DNA arrays were diluted 25-fold in Opti-MEM (without serum or phenol red) to a final concentration of 0.0004 μg/μL and 20 μL of the diluted DNAs were transferred into new 96-well plates. Next, promoterless carrier DNA (1 μg/μL) was diluted 25-fold (0.04 μg/μL) and then dispensed into the diluted arrays at 20 μL/well. Following brief mixing, Viafect transfection reagent (Promega) diluted 16-fold into Opti-MEM was dispensed into the plates at 40 μL/well. After mixing by pipetting, plates were incubated for 10 min on the pipetting station deck. The DNA-transfection reagent complexes were then added to plates containing cells. To facilitate the screen, 10 μL of DNA-transfection reagent complexes were added in duplicates to the top 4 and bottom 4 rows, resulting in two identical 48-well arrays per plate. Plates with transfected cells were incubated for 18–20 h at 37 °C/5% CO2. A screen of each tracer across the entire library using two different concentrations requires duplicate plates of transfected cells. Depending on the number of tracers being screened, transfections can be scaled up using the same ratios. The next day, for each tracer, four 20× screening solutions in tracer dilution buffer (Promega) were prepared: two duplicates at final concentration of 20 μM and two duplicates at a final concentration of 2 μM. A competing unmodified compound was added to one of each duplicate at a final concentration of 400 μM. The four resulting solutions were diluted 4-fold in Opti-MEM without serum or phenol red to generate 5× solutions (5 µM and 0.5 µM tracer +/− 100 μM competing compound). To screen the library, a BioTek MultiFlo FX liquid dispenser was used to dispense 22.5 µL of tracer solution to the top 4 rows and 22.5 µL tracer + competing compound solution to the 4 bottom rows. Plates were briefly mixed on an orbital shaker and incubated for 1.5 h at room temperature. […]

[2] = target: T2, P2RY6 (Homo sapiens, UniProt Q15077); assay: NanoBRET screen HiBiT-P2RY6 in HEK293
T2 construct: purchased Promega (in-house HiBiT-GPCR construct library, NanoBRET)
Method: as §1, §2

[3] = target: T3, FSHR (Homo sapiens, UniProt P23945); assay: NanoBRET screen HiBiT-FSHR in HEK293
T3 construct: purchased Promega (in-house HiBiT-GPCR construct library, NanoBRET)
T3 sequence (P23945 18-695): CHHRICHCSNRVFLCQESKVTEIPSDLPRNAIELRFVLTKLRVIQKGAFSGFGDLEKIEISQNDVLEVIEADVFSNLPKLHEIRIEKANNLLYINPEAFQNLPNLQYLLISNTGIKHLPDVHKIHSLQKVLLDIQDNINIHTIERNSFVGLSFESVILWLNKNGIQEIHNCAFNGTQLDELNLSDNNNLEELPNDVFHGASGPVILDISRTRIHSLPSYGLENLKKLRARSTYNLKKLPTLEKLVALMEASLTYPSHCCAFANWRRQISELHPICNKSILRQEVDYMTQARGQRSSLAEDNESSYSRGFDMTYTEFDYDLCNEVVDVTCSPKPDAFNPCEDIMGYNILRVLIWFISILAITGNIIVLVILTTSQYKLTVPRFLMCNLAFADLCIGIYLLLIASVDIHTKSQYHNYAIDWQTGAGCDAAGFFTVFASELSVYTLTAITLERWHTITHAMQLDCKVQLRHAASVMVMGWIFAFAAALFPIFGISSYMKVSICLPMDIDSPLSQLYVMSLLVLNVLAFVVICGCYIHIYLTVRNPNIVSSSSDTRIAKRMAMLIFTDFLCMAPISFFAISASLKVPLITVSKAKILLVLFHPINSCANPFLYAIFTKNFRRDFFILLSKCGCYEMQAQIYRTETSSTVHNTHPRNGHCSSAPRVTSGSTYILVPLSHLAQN
Method: as §1, §2

T2 sequence (Q15077 whole entry): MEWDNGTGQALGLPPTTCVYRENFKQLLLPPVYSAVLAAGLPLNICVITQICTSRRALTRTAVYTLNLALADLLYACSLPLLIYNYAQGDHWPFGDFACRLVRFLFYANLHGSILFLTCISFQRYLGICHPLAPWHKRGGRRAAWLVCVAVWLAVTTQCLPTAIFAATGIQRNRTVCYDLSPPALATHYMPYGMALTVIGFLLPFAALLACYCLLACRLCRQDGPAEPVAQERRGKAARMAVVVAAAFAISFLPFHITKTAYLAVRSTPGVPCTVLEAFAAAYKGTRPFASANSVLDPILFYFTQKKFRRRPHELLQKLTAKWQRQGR

Compound | NanoBRET Fold Response ([1]; EDNRA, tracer 0.1μM) | NanoBRET Fold Response ([1]; EDNRA, tracer 1μM) | NanoBRET Fold Response ([2]; P2RY6, tracer 0.1μM) | NanoBRET Fold Response ([2]; P2RY6, tracer 1μM) | NanoBRET Fold Response ([3]; FSHR, tracer 0.1μM) | NanoBRET Fold Response ([3]; FSHR, tracer 1μM) | further results
O=C(CCc1ccc2n1[B-](F)(F)[N+]1=C(c3ccc[nH]3)C=CC1=C2)NCc1ccc(C(=O)NCCOCCC(=O)N[C@@H]2CC[C@@]3(O)[C@H]4Cc5ccc(O)c6c5[C@@]3(CCN4CC3CC3)[C@H]2O6)cc1 [Naltrexone-3-NB590] | 1.00 | 0.98 | 0.84 | 0.81 | 0.98 | 1.07 | –
CCCn1c(=O)c2[nH]c(-c3ccc(OCC(=O)NCCNC(=O)CCOCCNC(=O)c4ccc(CNC(=O)CCc5ccc6n5[B-](F)(F)[N+]5=C(c7ccc[nH]7)C=CC5=C6)cc4)cc3)nc2n(CCC)c1=O [XAC-3-NB590] | 1.12 | 1.15 | 1.06 | 1.12 | 1.18 | 1.04 | –
CC(C)N(CC[C@H](c1ccccc1)c1cc(CCNC(=O)c2ccc(CNC(=O)CCc3ccc4n3[B-](F)(F)[N+]3=C(c5ccc[nH]5)C=CC3=C4)cc2)ccc1O)C(C)C [Tolterodine-BZ-NB590] | 1.05 | 1.11 | 1.03 | 1.08 | 1.08 | 1.09 | –
COc1ccc2[nH]c(-c3ccc(CNC(=O)CCOCCOCCOCCOCCNC(=O)CCc4ccc5n4[B-](F)(F)[N+]4=C(c6ccc[nH]6)C=CC4=C5)cc3)c(CCNC(C)=O)c2n1 [AzomelatoninICO9-2-NB590] | – | – | – | – | – | – | NanoBRET Fold Response ([1]; 0.1μM tracer): 0.87; NanoBRET Fold Response ([1]; 1μM tracer): 0.99; NanoBRET Fold Response ([2]; 0.1μM tracer): 1.40; NanoBRET Fold Response ([2]; 1μM tracer): 1.09; NanoBRET Fold Response ([3]; 0.1μM tracer): 1.32; NanoBRET Fold Response ([3]; 1μM tracer): 1.02
CN1CCN(C2=Nc3cc(Cl)ccc3N(CC(=O)NCCOCCOCCOCCOCCNC(=O)CCc3ccc4n3[B-](F)(F)[N+]3=C(c5ccc[nH]5)C=CC3=C4)c3ccccc32)CC1 [Clozapine-c-2-NB590] | – | – | – | – | – | – | NanoBRET Fold Response ([1]; EDNRA, 0.1μM tracer): 0.99; NanoBRET Fold Response ([1]; EDNRA, 1μM tracer): 0.87; NanoBRET Fold Response ([2]; P2RY6, 0.1μM tracer): 0.97; NanoBRET Fold Response ([2]; P2RY6, 1μM tracer): 0.98; NanoBRET Fold Response ([3]; FSHR, 0.1μM tracer): 1.02; NanoBRET Fold Response ([3]; FSHR, 1μM tracer): 1.05
COc1ccccc1N1CCN(CCCCN2C(=O)c3ccc(CNC(=O)CCOCCNC(=O)c4ccc(CNC(=O)CCc5ccc6n5[B-](F)(F)[N+]5=C(c7ccc[nH]7)C=CC5=C6)cc4)cc3C2=O)CC1 [NAN-190-3-NB590] | 1.01 | 1.21 | 1.10 | 0.91 | 0.88 | 1.12 | –
Cc1nc2n(c(=O)c1CCN1CCC(c3noc4cc(F)ccc34)CC1)CCCC2OC(=O)NCCOCCOCCOCCOCCNC(=O)CCc1ccc2n1[B-](F)(F)[N+]1=C(c3ccc[nH]3)C=CC1=C2 (stereo not shown) [Risperidone-2-NB590] | 1.04 | 0.97 | 1.00 | 1.03 | 0.95 | 1.23 | –
O=C(CCOCCOCCOCCOCCNC(=O)CCc1ccc2n1[B-](F)(F)[N+]1=C(c3ccc[nH]3)C=CC1=C2)NCCCN1CCN(C2=Nc3ccccc3Oc3ccc(Cl)cc32)CC1 [Loxapine-a-2-NB590] | 1.05 | 0.85 | 1.26 | 0.94 | 0.98 | 1.16 | –
COc1ccccc1N1CCN(CCCCN2C(=O)c3ccc(CNC(=O)CCOCCOCCOCCOCCNC(=O)CCc4ccc5n4[B-](F)(F)[N+]4=C(c6ccc[nH]6)C=CC4=C5)cc3C2=O)CC1 [NAN-190-2-NB590] | 1.02 | 1.05 | 0.96 | 1.17 | 0.97 | 0.97 | –
CN(CCC=C1c2ccccc2CCc2ccccc21)C(=O)CCOCCOCCOCCOCCNC(=O)CCc1ccc2n1[B-](F)(F)[N+]1=C(c3ccc[nH]3)C=CC1=C2 [Amitriptyline-e-2-NB590] | – | – | – | – | – | – | NanoBRET Fold Response ([1]; tracer at 1μM): 1.05
